Assays:
[1] = test system: TNF-α (NF-κB pathway, THP-1 cells); experiment: TNF-α Assay (IC50); type: cell-based, human; conditions: Homo sapiens, 600 ng/mL LPS, 3 hours
How it was run: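 Supernatant TNF-α quantified by ELISA after 3 h stimulation with 600 ng/mL LPS at 37 °C, following 30 min compound preincubation. Cells: IFN-differentiated (25 ng/mL, 24 h) THP-1 macrophages, 40,000/well, serum-free. IC50 by sigmoidal fit of % inhibition, with TPCA-1 as 100% control.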

[2] = test system: NLRP3 inflammasome (IL-1β production in THP-1 cells); experiment: IL-1β TR-FRET Assay (percentage of inhibition at 300 nM, 6 μM or 10 μM); type: cell-based, human; conditions: Homo sapiens, THP-1, 300 nM, LPS priming, ATP activation, read-out: IL-1β inhibitory rate at 300 nM (%)
How it was run: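 Percent inhibition of IL-1β used DMSO wells as 0% and 3 μM MCC-950 wells as full inhibition, with supernatant read by HTRF. Beforehand, IFN-γ-differentiated (25 ng/mL, 24 h), LPS-primed (50 ng/mL, 24 h) THP-1 cells received compound 30 min before inflammasome activation by 20 mM ATP for 2 h.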

Row | IC50 [1] | Compound | inhibition at 0.3 µM [2]
1 | > 30 µM | COc1ccccc1-c1nc2nn(-c3c(C)cc(C)cc3O)cc2c(=O)[nH]1 [Example 47, 2-(2-hydroxy-4,6-dimethylphenyl)-6-(2-methoxyphenyl)-2,5-dihydro-4H-pyrazolo[3,4-d]pyrimidin-4-one] | 98%
2 | > 30 µM | CCOc1nc2nn(-c3ccc(C4CC4)cc3O)c(C)c2c(=O)[nH]1 [Example 48, 2-(4-cyclopropyl-2-hydroxyphenyl)-6-ethoxy-3-methyl-2,5-dihydro-4H-pyrazolo[3,4-d]pyrimidin-4-one] | 100%
3 | > 30 µM | CCOc1nc2nn(-c3ccc(CC)cc3O)c(C)c2c(=O)[nH]1 [Example 49, 6-ethoxy-2-(4-ethyl-2-hydroxyphenyl)-3-methyl-2,5-dihydro-4H-pyrazolo[3,4-d]pyrimidin-4-one] | 98%
4 | > 30 µM | Cc1cc(C)c(-n2cc3c(=O)[nH]c(OCCN(C)C)nc3n2)c(O)c1 [Example 50, 6-[2-(dimethylamino)ethoxy]-2-(2-hydroxy-4,6-dimethylphenyl)-2,5-dihydro-4H-pyrazolo[3,4-d]pyrimidin-4-one] | 101%
5 | > 30 µM | CCOc1nc2nn(-c3c(O)cc(C)cc3F)c(C)c2c(=O)[nH]1 [Example 51, 6-ethoxy-2-(2-fluoro-6-hydroxy-4-methylphenyl)-3-methyl-2,5-dihydro-4H-pyrazolo[3,4-d]pyrimidin-4-one] | 100%

Continued, compound first:

Row | Compound | IC50 [1] | inhibition at 0.3 µM [2]
6 | CCOc1nc2nn(-c3c(C)cc(C4CC4)cc3F)cc2c(=O)[nH]1 [Example 39, 2-(4-cyclopropyl-2-fluoro-6-methylphenyl)-6-ethoxy-2,5-dihydro-4H-pyrazolo[3,4-d]pyrimidin-4-one] | > 30 µM | 100%
7 | Cc1cc(C)c(-n2cc3c(=O)[nH]c(CCC(C)(F)F)nc3n2)c(O)c1 [Example 40, 6-(3,3-difluorobutyl)-2-(2-hydroxy-4,6-dimethylphenyl)-2,5-dihydro-4H-pyrazolo[3,4-d]pyrimidin-4-one] | > 30 µM | 100%
8 | Cc1ccc(C)c(-n2cc3c(=O)[nH]c(-c4ccncn4)nc3n2)c1O [Example 41, 2-(2-hydroxy-3,6-dimethylphenyl)-6-(pyrimidin-4-yl)-2,5-dihydro-4H-pyrazolo[3,4-d]pyrimidin-4-one] | > 30 µM | 99%
9 | Cc1cc(C)c(-n2cc3c(=O)[nH]c(OCC(C)(F)F)nc3n2)c(O)c1 [Example 42, 6-(2,2-difluoropropoxy)-2-(2-hydroxy-4,6-dimethylphenyl)-2,5-dihydro-4H-pyrazolo[3,4-d]pyrimidin-4-one] | > 30 µM | 97%
10 | Cc1cc(C)c(-n2cc3c(=O)[nH]c(OC(C)C(F)(F)F)nc3n2)c(O)c1 (centres unmarked) [Example 43, 2-(2-hydroxy-4,6-dimethylphenyl)-6-[(1,1,1-trifluoropropan-2-yl)oxy]-2,5-dihydro-4H-pyrazolo[3,4-d]pyrimidin-4-one] | > 30 µM | 98%
11 | CCOc1nc2nn(-c3ccc(C(C)C)cc3O)c(C)c2c(=O)[nH]1 [Example 44, 6-ethoxy-2-[2-hydroxy-4-(propan-2-yl)phenyl]-3-methyl-2,5-dihydro-4H-pyrazolo[3,4-d]pyrimidin-4-one] | > 30 µM | 101%
12 | Cc1cc(C)c(-n2cc3c(=O)[nH]c(-c4ccccc4Cl)nc3n2)c(O)c1 [Example 45, 6-(2-chlorophenyl)-2-(2-hydroxy-4,6-dimethylphenyl)-2,5-dihydro-4H-pyrazolo[3,4-d]pyrimidin-4-one] | > 30 µM | 100%
13 | CCOCc1nc2nn(-c3c(C)cc(C)cc3O)cc2c(=O)[nH]1 [Example 46, 6-(ethoxymethyl)-2-(2-hydroxy-4,6-dimethylphenyl)-2,5-dihydro-4H-pyrazolo[3,4-d]pyrimidin-4-one] | > 30 µM | 95%

From patent US20260297092A1, “PYRAZOLOPYRIMIDINE DERIVATIVES AS INHIBITORS OF NLRP3” (Takeda Pharmaceutical Company Limited, priority 2023, published 2026)
